Measurements from publication PMC2700083, “A covalent peptide inhibitor of RGS4 identified in a focused one-bead, one compound library screen” (BMC Pharmacology, 2009).
Positions count from the first letter of the chain named. Where a SMILES comes first, the peptide text is derived from it. Bridges are numbered along the chain shown (N, C = ends).

Key:
RGS4 A95C, -7C = biological target: T1, RGS4 A95C, -7C (Rattus norvegicus, UniProt P49799, C132A/C148A/C183A/C197A/C204A/C71A); test: FCPIA, RGS4 A95C in the -7C; type: binding; settings: read-out: 5nd logIC50 (converted)
T1 construct: made in house
Protocol: (§1) Figure 5 Dose curves of 5nd on various RGS4 cysteine mutants. Various concentrations of 5nd were tested for disruption of the RGS4-Gαo interaction for C95A (5 nM), or […], C71A (5nM) or C148A (5nM) (B), A95C in the -7C (5nM), or A132C in the -7C (5nM) (C), A71C in the -7C (5nM), or A148C in the -7C (5nM) (D) or the mutant with no cysteines in the domain (20 nM) or the C-terminus (20 nM) (E) in the FCPIA (mean ± S.E.M., n ≥ 3).
(§2) The previous experiments tested which cysteines are necessary for inhibition by 5nd. In an alternative approach, we added cysteines back to the -7C mutant to determine which might be sufficient for 5nd activity. […] Furthermore, Cys132 is involved in the actions but this is clearly not sufficient to explain them. Thus it is concluded that 5nd is at least partially non-selective in its cysteine modification.
(§3) Proteins were expressed, purified and labeled as described previously. The mutagenesis was done using the "QuickChange Multi Site-Directed Mutagenesis Kit" from Stratagene according to the manufacturer's protocol. The construct of RGS4 used in these studies is a maltose binding protein (MBP-) fusion protein of the RGS4 sequence from which the amphipathic N-terminal helix has been removed (i.e. MBP-RGS4Δ51N). For simplicity in the text, this will be referred to as RGS4. […]

RGS4 C132A = biological target: T2, RGS4 C132A (Rattus norvegicus, UniProt P49799, C132A); test: FCPIA, RGS4 cysteine mutant C132A; type: binding; settings: read-out: 5nd logIC50 (converted)
T2 construct: made in house
T2 sequence (P49799 52-205 C132A limits assumed): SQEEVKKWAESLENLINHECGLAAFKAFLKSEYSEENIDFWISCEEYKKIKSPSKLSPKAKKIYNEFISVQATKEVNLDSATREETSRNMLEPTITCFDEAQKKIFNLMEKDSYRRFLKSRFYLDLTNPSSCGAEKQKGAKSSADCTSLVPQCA
Protocol: as §1
(§4) Proteins were expressed, purified and labeled as described previously. The mutagenesis was done using the "QuickChange Multi Site-Directed Mutagenesis Kit" from Stratagene according to the manufacturer's protocol. The construct of RGS4 used in these studies is a maltose binding protein (MBP-) fusion protein of the RGS4 sequence from which the amphipathic N-terminal helix has been removed (i.e. MBP-RGS4Δ51N). For simplicity in the text, this will be referred to as RGS4. All other RGS proteins were human sequences and were used as Mpb fusions: RGS7 RGS domain (aa: 305–453), RGS8 full length, RGS16 full length, and RGS19ΔC11 (amino acids 1–209). To cleave RGS4Δ51N from the MBP-His6 construct for MS analysis, MBP-His6-RGS4Δ51N was treated with 15% MBP-His6-TEV protease S219V [11] for 22 hours at 4°C and purified over a Ni-NTA column.
(§5) FCPIA was performed as previously published.

RGS4 C148A = biological target: T3, RGS4 C148A (Rattus norvegicus, UniProt P49799, C148A); test: FCPIA, RGS4 cysteine mutant C148A; type: binding; settings: read-out: 5nd logIC50 (converted)
T3 construct: made in house
Protocol: as §1, §4, §5

RGS4Δ51N = biological target: T4, RGS4Δ51N (Rattus norvegicus, UniProt P49799); test: MALDI MS analysis of covalent adduct with RGS4Δ51N; settings: 250 μM 5nd
T4 construct: MBP (N, cleaved yes); His6 (N, cleaved yes); made in house
T4 sequence (P49799 52-205 limits assumed): T2 sequence (P49799 52-205 C132A limits assumed) with A81C
Protocol: To directly test for the formation of a covalent adduct between 5nd and RGS4, we performed mass spectrometry (MS) analysis. The RGS4Δ51N protein, following TEV-protease cleavage from the MBP-His6 construct, was treated with 5nd at a 50:1 molar ratio. An adduct to the protein that is consistent with the mass of 5nd binding through a disulfide bridge was observed by MS (Figure 4, mass shift observed: Δ999.2 ± 1; expected: Δ998.5). […] There is also a small peak that may represent two peptides per RGS (observed: Δ1999.1 ± 2; expected: Δ1997.0).
Figure 4 MS analysis of RGS4 with and without 5nd pretreatment. RGS4Δ51N was cleaved from the MBP-His6 construct and subject to MALDI MS after pretreatment with DMSO (A) or 5nd (250 μM) (B). Both spectra show the region between 4,000 and 30,000 m/z and have the peak at 18158.8 or 18158.2 m/z for A and B, respectively, which corresponds to the cleaved RGS4Δ51N protein (black arrows). The spectrum in B also has a peak at 19158 m/z that corresponds to a peptide adduct (grey arrows). There is a very small peak at 20157.9 that may correspond to 2 peptides per RGS (grey arrows). The inset is a blow-up of the region between 17500 and 20500 m/z.
Total mass MS of 5 μM RGS4Δ51N was analyzed on a MicroMX MALDI MS instrument in positive ion mode with an accuracy of ± 0.1% after pretreatment with DMSO or 250 μM 5nd. […]

RGS4 A71C, -7C = biological target: T5, RGS4 A71C, -7C (Rattus norvegicus, UniProt P49799, C132A/C148A/C183A/C197A/C204A/C95A); test: FCPIA, RGS4 A71C in the -7C; type: binding; settings: read-out: 5nd logIC50 (converted)
T5 construct: made in house
Protocol: as §1, §2, §3

[1] = biological target: T6, RGS4 no Cys in RGS domain (Rattus norvegicus, UniProt P49799, C132A/C148A/C71A/C95A); test: FCPIA, RGS4 mutant with no Cys in RGS domain; type: binding
T6 construct: made in house
Protocol: Since 5nd forms an irreversible, DTT-sensitive bond with RGS, it was suspected that it binds covalently to a cysteine in the protein through a disulfide bridge. Indeed, removal of all 7 cysteines (termed the -7C mutant) from RGS4 greatly diminished 5nd activity (logIC50 of -3.24 ± 0.14 for -7C vs. -4.36 ± 0.02 for wild type) (Figure 5, Table 2).
as §1, §3

RGS4 A148C, -7C = biological target: T7, RGS4 A148C, -7C (Rattus norvegicus, UniProt P49799, C132A/C183A/C197A/C204A/C71A/C95A); test: FCPIA, RGS4 A148C in the -7C; type: binding; settings: read-out: 5nd logIC50 (converted)
T7 construct: made in house
T7 sequence (P49799 52-205 C71A/C95A/C132A/C183A/C197A/C204A): T2 sequence (P49799 52-205 C132A limits assumed) with C20A, C44A, C132A, C146A, C153A
Protocol: as §1, §2, §3

T6 sequence (P49799 52-205 C71A/C95A/C132A/C148A limits assumed): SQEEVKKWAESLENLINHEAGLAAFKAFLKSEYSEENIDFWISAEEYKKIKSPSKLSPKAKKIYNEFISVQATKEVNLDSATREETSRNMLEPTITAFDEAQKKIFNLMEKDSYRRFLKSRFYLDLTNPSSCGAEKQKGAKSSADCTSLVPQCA
T5 sequence (P49799 52-205 C95A/C132A/C148A/C183A/C197A/C204A): as the sequence (P49799 52-205 C71A/C95A/C132A/C148A limits assumed) above, with A20C, C132A, C146A, C153A counted along it
T1 sequence (P49799 52-205 C71A/C132A/C148A/C183A/C197A/C204A): as the sequence (P49799 52-205 C71A/C95A/C132A/C148A limits assumed) above, with A44C, C132A, C146A, C153A counted along it
T3 sequence (P49799 52-205 C148A limits assumed): as the sequence (P49799 52-205 C71A/C95A/C132A/C148A limits assumed) above, with A20C, A44C, A81C counted along it

## CC(C)C[C@@H]1NC(=O)CNC(=O)[C@H](CCCCN)NC(=O)[C@@H](NC(=O)[C@H](Cc2c[nH]c3ccccc23)NC(=O)[C@@H](N)Cc2ccc(O)cc2)CSSC[C@@H](C(=O)N[C@@H](CCCCN)C(N)=O)NC1=O [Peptide 5nd, Tyr-Trp-c [Cys-Lys-Gly-Leu-Cys]-Lys-NH2, S-S] (H-YWCKGLCK-NH2; disulfide 3-7)
RGS4 A95C, -7C
  IC50: 263 µM
RGS4 C132A
  IC50: 138 µM
RGS4 C148A
  IC50: 53.7 µM
RGS4Δ51N; 5 μM RGS4Δ51N (50:1), expected Δ998.5
  mass shift observed, adduct of one peptide per RGS: 999.2 ± 1
RGS4Δ51N; 5 μM RGS4Δ51N, expected Δ1997.0
  mass shift observed, small peak that may represent two peptides per RGS: 1999.1 ± 2
RGS4 A71C, -7C
  IC50: 631 µM
[1]; no Cys in RGS domain, read-out: 5nd logIC50 (converted)
  IC50: 158 µM
[1]; versus wild type RGS4
  reduction of potency by removal of all 4 cysteines from the RGS domain: 3.6 fold
RGS4 A148C, -7C
  IC50: 309 µM
